Reference: PubChem BioAssay (NCI)
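Cells were grown in 96-well plates and exposed to each compound for 48 hours at five concentrations; endpoints were interpolated linearly between bracketing concentrations, or set to the highest concentration if not reached. TGI: concentration producing complete growth inhibition.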

Key:
Assay in all cases: NCI-60 cell line screen, 48 h
786-0 renal = tested on: 786-0 renal
A498 renal = tested on: A498 renal
A549 NSCLC = tested on: A549 NSCLC
ACHN renal = tested on: ACHN renal
BT-549 breast = tested on: BT-549 breast
CAKI-1 renal = tested on: CAKI-1 renal
CCRF-CEM leukemia = tested on: CCRF-CEM leukemia
COLO 205 colon = tested on: COLO 205 colon
DU-145 prostate = tested on: DU-145 prostate
EKVX NSCLC = tested on: EKVX NSCLC
HCC-2998 colon = tested on: HCC-2998 colon
HCT-116 colon = tested on: HCT-116 colon
HCT-15 colon = tested on: HCT-15 colon
HOP-62 NSCLC = tested on: HOP-62 NSCLC
HOP-92 NSCLC = tested on: HOP-92 NSCLC
HS 578T breast = tested on: HS 578T breast
HT29 colon = tested on: HT29 colon
IGROV1 ovarian = tested on: IGROV1 ovarian
K-562 leukemia = tested on: K-562 leukemia
KM12 colon = tested on: KM12 colon
LOX IMVI melanoma = tested on: LOX IMVI melanoma
M14 melanoma = tested on: M14 melanoma
MALME-3M melanoma = tested on: MALME-3M melanoma
MCF7 breast = tested on: MCF7 breast
MDA-MB-231 breast = tested on: MDA-MB-231 breast
MDA-MB-435 = tested on: MDA-MB-435
MDA-N = tested on: MDA-N
MOLT-4 leukemia = tested on: MOLT-4 leukemia
NCI-H226 lung = tested on: NCI-H226 lung
NCI-H23 lung = tested on: NCI-H23 lung
NCI-H460 lung = tested on: NCI-H460 lung
NCI-H522 lung = tested on: NCI-H522 lung
NCI/ADR-RES ovarian = tested on: NCI/ADR-RES ovarian
OVCAR-3 ovarian = tested on: OVCAR-3 ovarian
OVCAR-4 ovarian = tested on: OVCAR-4 ovarian
OVCAR-5 ovarian = tested on: OVCAR-5 ovarian
OVCAR-8 ovarian = tested on: OVCAR-8 ovarian
PC-3 prostate = tested on: PC-3 prostate
RPMI-8226 leukemia = tested on: RPMI-8226 leukemia
RXF 393 renal = tested on: RXF 393 renal
SF-268 CNS = tested on: SF-268 CNS
SF-295 CNS = tested on: SF-295 CNS
SF-539 CNS = tested on: SF-539 CNS
SK-MEL-2 melanoma = tested on: SK-MEL-2 melanoma
SK-MEL-28 melanoma = tested on: SK-MEL-28 melanoma
SK-MEL-5 melanoma = tested on: SK-MEL-5 melanoma
SK-OV-3 ovarian = tested on: SK-OV-3 ovarian
SN12C renal = tested on: SN12C renal
SNB-19 CNS = tested on: SNB-19 CNS
SNB-75 CNS = tested on: SNB-75 CNS
SR leukemia = tested on: SR leukemia
SW-620 colon = tested on: SW-620 colon
T-47D breast = tested on: T-47D breast
TK-10 renal = tested on: TK-10 renal
U251 CNS = tested on: U251 CNS
UACC-257 melanoma = tested on: UACC-257 melanoma
UACC-62 melanoma = tested on: UACC-62 melanoma
UO-31 renal = tested on: UO-31 renal

In the case of `COc1ccccc1/C=C/c1nc2ccccc2o1`, the TGI (786-0 renal) is reported as greater than 10 µM, the TGI (A498 renal) is reported as greater than 10 µM and the TGI (A549 NSCLC) is reported as greater than 10 µM. For the same molecule, the TGI (ACHN renal) was greater than 10 µM, the TGI (BT-549 breast) was greater than 10 µM and the TGI (CAKI-1 renal) was greater than 10 µM. For the same molecule, the TGI (CCRF-CEM leukemia) was greater than 10 µM, the TGI (COLO 205 colon) was greater than 10 µM and the TGI (DU-145 prostate) was greater than 10 µM. For the same molecule, the TGI (EKVX NSCLC) was greater than 10 µM, the TGI (HCC-2998 colon) was greater than 10 µM and the TGI (HCT-116 colon) was greater than 10 µM. The TGI (HCT-15 colon) was greater than 10 µM, the TGI (HOP-62 NSCLC) was greater than 10 µM and the TGI (HOP-92 NSCLC) was greater than 10 µM. For the same molecule, the TGI (HS 578T breast) was greater than 10 µM, the TGI (HT29 colon) was greater than 10 µM and the TGI (IGROV1 ovarian) was greater than 10 µM. It also gave a TGI (K-562 leukemia) greater than 10 µM, a TGI (KM12 colon) greater than 10 µM and a TGI (LOX IMVI melanoma) greater than 10 µM. The TGI (M14 melanoma) was greater than 10 µM, the TGI (MALME-3M melanoma) was greater than 10 µM and the TGI (MCF7 breast) was greater than 10 µM. For the same molecule, the TGI (MDA-MB-231 breast) was greater than 10 µM, the TGI (MDA-MB-435) was greater than 10 µM and the TGI (MDA-N) was greater than 10 µM. For the same molecule, the TGI (MOLT-4 leukemia) was greater than 10 µM, the TGI (NCI-H226 lung) was greater than 10 µM and the TGI (NCI-H23 lung) was greater than 10 µM. For the same molecule, the TGI (NCI-H460 lung) was greater than 10 µM, the TGI (NCI-H522 lung) was greater than 10 µM and the TGI (NCI/ADR-RES ovarian) was greater than 10 µM. For the same molecule, the TGI (OVCAR-3 ovarian) was greater than 10 µM, the TGI (OVCAR-4 ovarian) was greater than 10 µM and the TGI (OVCAR-5 ovarian) was greater than 10 µM. For the same molecule, the TGI (OVCAR-8 ovarian) was greater than 10 µM, the TGI (PC-3 prostate) was greater than 10 µM and the TGI (RPMI-8226 leukemia) was greater than 10 µM. It also gave a TGI (RXF 393 renal) greater than 10 µM, a TGI (SF-268 CNS) greater than 10 µM and a TGI (SF-295 CNS) greater than 10 µM. For the same molecule, the TGI (SF-539 CNS) was greater than 10 µM, the TGI (SK-MEL-2 melanoma) was greater than 10 µM and the TGI (SK-MEL-28 melanoma) was greater than 10 µM. For the same molecule, the TGI (SK-MEL-5 melanoma) was greater than 10 µM, the TGI (SK-OV-3 ovarian) was greater than 10 µM and the TGI (SN12C renal) was greater than 10 µM. For the same molecule, the TGI (SNB-19 CNS) was greater than 10 µM, the TGI (SNB-75 CNS) was greater than 10 µM and the TGI (SR leukemia) was greater than 10 µM. The TGI (SW-620 colon) was greater than 10 µM, the TGI (T-47D breast) was greater than 10 µM and the TGI (TK-10 renal) was greater than 10 µM. It also gave a TGI (U251 CNS) greater than 10 µM, a TGI (UACC-257 melanoma) greater than 10 µM and a TGI (UACC-62 melanoma) greater than 10 µM.

Molecule `N#CCCN(CCC#N)c1ccc(C(N=Nc2ccc(Cl)cc2)=Nc2ccc(Cl)cc2)cc1` has a TGI (786-0 renal) of 34.7 µM, a TGI (A498 renal) of 43.3 µM and a TGI (A549 NSCLC) of 41 µM. It also gave a TGI (ACHN renal) of 34 µM, a TGI (BT-549 breast) of 36.3 µM and a TGI (CAKI-1 renal) of 45.2 µM. For the same molecule, the TGI (CCRF-CEM leukemia) was 65.3 µM, the TGI (COLO 205 colon) was 31.9 µM and the TGI (DU-145 prostate) was 30.3 µM. It also gave a TGI (EKVX NSCLC) of 85.3 µM, a TGI (HCC-2998 colon) of 27.1 µM and a TGI (HCT-116 colon) of 36.5 µM. It also gave a TGI (HCT-15 colon) of 23.7 µM, a TGI (HOP-62 NSCLC) of 50.8 µM and a TGI (HOP-92 NSCLC) of 38.8 µM. It also gave a TGI (HS 578T breast) of 35.2 µM, a TGI (HT29 colon) of 44.6 µM and a TGI (IGROV1 ovarian) of 28.1 µM. For the same molecule, the TGI (K-562 leukemia) was greater than 100 µM, the TGI (KM12 colon) was 44.1 µM and the TGI (M14 melanoma) was 58.7 µM. For the same molecule, the TGI (MCF7 breast) was 24.7 µM, the TGI (MDA-MB-231 breast) was 42 µM and the TGI (MDA-MB-435) was 88.3 µM. The TGI (MDA-N) was 40.8 µM, the TGI (MOLT-4 leukemia) was 87.8 µM and the TGI (NCI-H226 lung) was 36.7 µM. For the same molecule, the TGI (NCI-H23 lung) was 41.8 µM, the TGI (NCI-H460 lung) was 29.2 µM and the TGI (NCI-H522 lung) was 32.5 µM. It also gave a TGI (NCI/ADR-RES ovarian) of 38 µM, a TGI (OVCAR-3 ovarian) of 36.9 µM and a TGI (OVCAR-4 ovarian) of 81.2 µM. The TGI (OVCAR-5 ovarian) was 43.8 µM, the TGI (OVCAR-8 ovarian) was 31.4 µM and the TGI (PC-3 prostate) was 32.1 µM. The TGI (RPMI-8226 leukemia) was greater than 100 µM, the TGI (RXF 393 renal) was 29.1 µM and the TGI (SF-268 CNS) was 33.4 µM. It also gave a TGI (SF-295 CNS) of 29.2 µM, a TGI (SF-539 CNS) of 38.6 µM and a TGI (SK-MEL-2 melanoma) of 25 µM. The TGI (SK-MEL-28 melanoma) was greater than 100 µM, the TGI (SK-MEL-5 melanoma) was 24.7 µM and the TGI (SK-OV-3 ovarian) was greater than 100 µM. For the same molecule, the TGI (SN12C renal) was 33.5 µM, the TGI (SNB-19 CNS) was 53.3 µM and the TGI (SNB-75 CNS) was 45.6 µM. It also gave a TGI (SR leukemia) greater than 100 µM, a TGI (SW-620 colon) of 34.3 µM and a TGI (T-47D breast) of 23.9 µM. It also gave a TGI (TK-10 renal) of 33.5 µM, a TGI (U251 CNS) of 33.2 µM and a TGI (UACC-257 melanoma) of 29.7 µM. The TGI (UACC-62 melanoma) was 30.2 µM and the TGI (UO-31 renal) was 29.4 µM.

`COc1cc2c(cc1O)C(c1cc(O)c(O)c(OC)c1)C(O)(C(=O)O)C(CO)C2O` (stereo unspecified) showed a TGI (786-0 renal) of 30.5 µM, a TGI (A498 renal) greater than 100 µM and a TGI (A549 NSCLC) greater than 100 µM. It also gave a TGI (ACHN renal) greater than 100 µM, a TGI (BT-549 breast) greater than 100 µM and a TGI (CAKI-1 renal) greater than 100 µM. The TGI (CCRF-CEM leukemia) was 22.7 µM, the TGI (COLO 205 colon) was greater than 100 µM and the TGI (DU-145 prostate) was greater than 100 µM. For the same molecule, the TGI (EKVX NSCLC) was 36.9 µM, the TGI (HCC-2998 colon) was greater than 100 µM and the TGI (HCT-116 colon) was 42.7 µM. It also gave a TGI (HCT-15 colon) greater than 100 µM, a TGI (HOP-62 NSCLC) greater than 100 µM and a TGI (HOP-92 NSCLC) greater than 100 µM. The TGI (HS 578T breast) was greater than 100 µM, the TGI (HT29 colon) was greater than 100 µM and the TGI (IGROV1 ovarian) was greater than 100 µM. For the same molecule, the TGI (K-562 leukemia) was greater than 100 µM, the TGI (KM12 colon) was greater than 100 µM and the TGI (LOX IMVI melanoma) was 33.3 µM. The TGI (M14 melanoma) was greater than 100 µM, the TGI (MALME-3M melanoma) was greater than 100 µM and the TGI (MCF7 breast) was 42.5 µM. It also gave a TGI (MDA-MB-231 breast) greater than 100 µM, a TGI (MDA-MB-435) of 37 µM and a TGI (MDA-N) of 30.9 µM. The TGI (MOLT-4 leukemia) was 44.3 µM, the TGI (NCI-H226 lung) was greater than 100 µM and the TGI (NCI-H23 lung) was greater than 100 µM. The TGI (NCI-H460 lung) was greater than 100 µM, the TGI (NCI-H522 lung) was greater than 100 µM and the TGI (NCI/ADR-RES ovarian) was greater than 100 µM. The TGI (OVCAR-3 ovarian) was greater than 100 µM, the TGI (OVCAR-4 ovarian) was greater than 100 µM and the TGI (OVCAR-5 ovarian) was greater than 100 µM. The TGI (OVCAR-8 ovarian) was greater than 100 µM, the TGI (PC-3 prostate) was greater than 100 µM and the TGI (RPMI-8226 leukemia) was greater than 100 µM. For the same molecule, the TGI (RXF 393 renal) was greater than 100 µM, the TGI (SF-268 CNS) was greater than 100 µM and the TGI (SF-295 CNS) was greater than 100 µM. For the same molecule, the TGI (SF-539 CNS) was greater than 100 µM, the TGI (SK-MEL-2 melanoma) was greater than 100 µM and the TGI (SK-MEL-28 melanoma) was greater than 100 µM. It also gave a TGI (SK-MEL-5 melanoma) greater than 100 µM, a TGI (SK-OV-3 ovarian) greater than 100 µM and a TGI (SN12C renal) of 32.6 µM. The TGI (SNB-19 CNS) was greater than 100 µM, the TGI (SNB-75 CNS) was greater than 100 µM and the TGI (SR leukemia) was greater than 100 µM. The TGI (SW-620 colon) was 76.5 µM, the TGI (T-47D breast) was greater than 100 µM and the TGI (TK-10 renal) was greater than 100 µM. For the same molecule, the TGI (U251 CNS) was greater than 100 µM, the TGI (UACC-257 melanoma) was greater than 100 µM and the TGI (UACC-62 melanoma) was greater than 100 µM. It also gave a TGI (UO-31 renal) greater than 100 µM.
